Test results published in patent publication US10202351B2, “Pyrazolyl derivatives as pest control agents” (BAYER ANIMAL HEALTH GMBH, priority 2015, dated 2019).

Experiments:
Type in all cases: in vivo
Boophilus microplus = Boophilus microplus injection test; conditions: application rate 20 μg/animal, after 7 days, laying of fertile eggs
Method: Solvent: dimethyl sulfoxide […] The animals are transferred into dishes and kept in a climate-controlled room. Efficacy is assessed after 7 days by laying of fertile eggs. Eggs which are not visibly fertile are stored in a climate-controlled cabinet until the larvae hatch after about 42 days.

Ctenocephalides felis = Ctenocephalides felis oral test; conditions: application rate 100 ppm in citrated cattle blood, kill after 2 days
Text: Solvent: dimethyl sulfoxide […] Dilution with citrated cattle blood gives the desired concentration. About 20 unfed adult cat fleas (Ctenocephalides felis) are placed into a chamber which is closed at the top and bottom with gauze. A metal cylinder whose bottom end is closed with parafilm is placed onto the chamber. The cylinder contains the blood/active ingredient formulation, which can be imbibed by the fleas through the parafilm membrane.

Lucilia cuprina = Lucilia cuprina test; conditions: application rate 100 ppm, L1 larvae, kill after 2 days
Procedure, shortened: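 About 20 L1 larvae were placed in vessels of minced horsemeat containing compound, formulated in dimethyl sulfoxide and diluted with water to the test concentration. Kill (%) was scored after 2 days; 100% means all larvae dead, 0% none.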

Musca domestica = Musca domestica test; conditions: application rate 100 ppm, adult houseflies, kill after 2 days
Procedure, shortened: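 Compound dissolved in DMSO (10 mg per 0.5 ml), diluted with water to test concentration and applied to a sugar-solution sponge. Vessels held 10 adult houseflies; percent kill scored after 2 days (100% = all dead).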

Meloidogyne incognita = Meloidogyne incognita test; conditions: application rate 20 ppm, nematicidal efficacy by formation of galls on lettuce after 14 days
Method: Solvent: 125.0 parts by weight of acetone
To produce a suitable active ingredient formulation, 1 part by weight of active ingredient is mixed with the stated amount of solvent and the concentrate is diluted to the desired concentration with water.
Vessels are filled with sand, active ingredient solution, an egg/larvae suspension of the southern root-knot nematode (Meloidogyne incognita) and lettuce seeds. The lettuce seeds germinate and the plants develop. The galls develop on the roots.
After 14 days, the nematicidal efficacy in % is determined by the formation of galls. 100% means that no galls were found; 0% means that the number of galls on the treated plants corresponds to the untreated control.

Phaedon cochleariae = Phaedon cochleariae spray test; conditions: application rate 100 g/ha, larvae on Chinese cabbage leaf discs, after 7 days
Method: (§1) Solvent: 78.0 parts by weight of acetone • • 1.5 parts by weight of dimethylformamide Emulsifier: alkylaryl polyglycol ether […] To produce further test concentrations, the formulation is diluted with emulsifier-containing water. Discs of Chinese cabbage leaves (Brassica pekinensis) are sprayed with an active ingredient formulation of the desired concentration and, after drying, populated with larvae of the mustard beetle (Phaedon cochleariae).

Spodoptera frugiperda = Spodoptera frugiperda spray test; conditions: application rate 100 g/ha, caterpillars on maize leaf discs, after 7 days
Method: as §1, with “Leaf discs” for “Discs”, “maize (Zea mays)” for “Chinese cabbage leaves (Brassica pekinensis)”, “compound” for “ingredient”, “caterpillars” for “larvae”, “armyworm (Spodoptera frugiperda).” for “mustard beetle (Phaedon cochleariae).”

Tetranychus urticae = Tetranychus urticae spray test, OP-resistant; conditions: application rate 100 g/ha, all stages on bean leaf discs, after 6 days
Method: Solvent: 78.0 parts by weight of acetone • • 1.5 parts by weight of dimethylformamide Emulsifier: alkylaryl polyglycol ether […] To produce further test concentrations, the formulation is diluted with emulsifier-containing water. Discs of bean leaves (Phaseolus vulgaris) infested with all stages of the greenhouse red spider mite (Tetranychus urticae) are sprayed with an active ingredient formulation of the desired concentration.

Structure (SMILES) | efficacy (Boophilus microplus) [%] | efficacy (Ctenocephalides felis) [%] | efficacy (Lucilia cuprina) [%] | efficacy (Musca domestica) [%] | efficacy (Meloidogyne incognita) [%] | efficacy (Phaedon cochleariae) [%] | efficacy (Spodoptera frugiperda) [%] | efficacy (Tetranychus urticae) [%]
Cc1cc(C(F)(C(F)(F)F)C(F)(F)F)cc(C(F)(F)F)c1-n1cc(-c2cc(NC(=O)c3ccc(C#N)nc3)ccc2F)cn1 [Example 2-3] | 100 | 100 | 100 | 100 | 90 | 100 | 100 | 90
Cc1cc(C(F)(C(F)(F)F)C(F)(F)F)cc(C(F)(F)F)c1-n1cc(-c2cc(NC(=O)c3ccc(Cl)nc3)ccc2F)cn1 [Example 2-4] | 100 | 95 | 90 | – | 90 | 100 | 100 | –
